Source: PubChem BioAssay (NCI)
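Values below derive from 48-hour exposures of cells grown in 96-well plates, with endpoints linearly interpolated between the two concentrations bracketing the appropriate inhibition level. GI50: concentration for 50% inhibition of growth. TGI marks complete inhibition of growth.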

Experiments:
Test in all cases: DTP human tumour cell line panel, 48 h
[1] = test system: HL-60(TB) leukemia
[2] = test system: SK-MEL-2 melanoma
[3] = test system: TK-10 renal
[4] = test system: MALME-3M melanoma
[5] = test system: PC-3 prostate
[6] = test system: SK-MEL-5 melanoma
[7] = test system: SF-539 CNS
[8] = test system: LOX IMVI melanoma
[9] = test system: T-47D breast
[10] = test system: HCT-116 colon
[11] = test system: SK-OV-3 ovarian
[12] = test system: EKVX NSCLC
[13] = test system: UACC-257 melanoma
[14] = test system: SNB-75 CNS
[15] = test system: DU-145 prostate
[16] = test system: A498 renal
[17] = test system: HCT-15 colon
[18] = test system: RXF 393 renal
[19] = test system: A549 NSCLC
[20] = test system: HOP-62 NSCLC
[21] = test system: HT29 colon
[22] = test system: SK-MEL-28 melanoma
[23] = test system: U251 CNS
[24] = test system: OVCAR-4 ovarian
[25] = test system: SNB-19 CNS
[26] = test system: CCRF-CEM leukemia
[27] = test system: BT-549 breast
[28] = test system: HCC-2998 colon
[29] = test system: SN12C renal
[30] = test system: NCI-H226 lung
[31] = test system: KM12 colon
[32] = test system: SW-620 colon
[33] = test system: MDA-MB-231 breast
[34] = test system: MCF7 breast
[35] = test system: MDA-MB-435
[36] = test system: SF-268 CNS
[37] = test system: COLO 205 colon
[38] = test system: NCI-H23 lung
[39] = test system: UO-31 renal
[40] = test system: HS 578T breast
[41] = test system: OVCAR-8 ovarian
[42] = test system: ACHN renal
[43] = test system: IGROV1 ovarian
[44] = test system: SF-295 CNS
[45] = test system: NCI/ADR-RES ovarian
[46] = test system: CAKI-1 renal
[47] = test system: HOP-92 NSCLC
[48] = test system: M14 melanoma
[49] = test system: MOLT-4 leukemia
[50] = test system: OVCAR-5 ovarian
[51] = test system: UACC-62 melanoma
[52] = test system: RPMI-8226 leukemia
[53] = test system: 786-0 renal
[54] = test system: NCI-H460 lung
[55] = test system: NCI-H522 lung
[56] = test system: K-562 leukemia
[57] = test system: OVCAR-3 ovarian

In the case of `COc1ccc(C2=CC(c3ccc4c(c3)OCO4)c3c(c4ccccc4oc3=O)O2)cc1OC` (stereo not drawn), the TGI [1] is reported as 1.67 µM, the TGI [2] is reported as > 100 µM and the TGI [3] is reported as > 100 µM. For the same compound, the TGI [4] was > 100 µM, the TGI [5] was > 100 µM and the TGI [6] was > 100 µM. For the same compound, the TGI [7] was > 22.5 µM, the TGI [8] was > 100 µM and the TGI [9] was > 100 µM. The TGI [10] was > 100 µM, the TGI [11] was > 100 µM and the TGI [12] was > 100 µM. For the same compound, the TGI [13] was > 100 µM, the TGI [14] was > 21.4 µM and the TGI [15] was > 100 µM. The TGI [16] was > 100 µM, the TGI [17] was > 31.6 µM and the TGI [18] was > 100 µM. For the same compound, the TGI [19] was > 100 µM, the TGI [20] was > 100 µM and the TGI [21] was > 100 µM. For the same compound, the TGI [22] was > 100 µM, the TGI [23] was > 100 µM and the TGI [24] was > 100 µM. For the same compound, the TGI [25] was > 100 µM, the TGI [26] was > 100 µM and the TGI [27] was > 100 µM. The TGI [28] was > 27.2 µM, the TGI [29] was > 100 µM and the TGI [30] was 6.72 µM. The TGI [31] was > 100 µM, the TGI [32] was > 100 µM and the TGI [33] was > 100 µM. The TGI [34] was > 100 µM, the TGI [35] was 9.25 µM and the TGI [36] was > 100 µM. For the same compound, the TGI [37] was > 22.6 µM, the TGI [38] was > 100 µM and the TGI [39] was > 100 µM. The TGI [40] was > 25.6 µM, the TGI [41] was > 100 µM and the TGI [42] was > 100 µM. The TGI [43] was > 100 µM, the TGI [44] was > 100 µM and the TGI [45] was > 100 µM. For the same compound, the TGI [46] was > 100 µM, the TGI [47] was > 100 µM and the TGI [48] was > 100 µM. For the same compound, the TGI [49] was > 100 µM, the TGI [50] was > 100 µM and the TGI [51] was > 100 µM. The TGI [52] was > 65.3 µM, the TGI [53] was > 100 µM and the TGI [54] was > 100 µM.
`CC(C)(C)c1ccc(Oc2nccc(-c3c(-c4ccc(F)cc4)ncn3C3CCNCC3)n2)cc1` gave a GI50 [1] of 4.64 µM, a TGI [1] of 9.1 µM and a GI50 [2] of 5.21 µM. It also gave a TGI [2] of 9.1 µM, a GI50 [3] of 4.4 µM and a TGI [3] of 8.04 µM. For the same compound, the GI50 [4] was 4.94 µM, the TGI [4] was 9.38 µM and the GI50 [5] was 2.88 µM. It also gave a TGI [5] of 6.19 µM, a GI50 [6] of 3.68 µM and a TGI [6] of 7.03 µM. It also gave a GI50 [7] of 4.38 µM, a TGI [7] of 8.03 µM and a GI50 [8] of 3.43 µM. It also gave a TGI [8] of 7.49 µM, a GI50 [9] of 4.46 µM and a TGI [9] of 8.56 µM. The GI50 [10] was 3.58 µM, the TGI [10] was 7.07 µM and the GI50 [11] was 4.35 µM. For the same compound, the TGI [11] was 7.8 µM, the GI50 [55] was 4.69 µM and the TGI [55] was 8.58 µM. The GI50 [12] was 3.6 µM, the TGI [12] was 7.36 µM and the GI50 [14] was 2.89 µM. The TGI [14] was 6.15 µM, the GI50 [15] was 3.71 µM and the TGI [15] was 7.06 µM. The GI50 [16] was 3.89 µM, the TGI [16] was 7.49 µM and the GI50 [17] was 3.23 µM. For the same compound, the TGI [17] was 6.68 µM, the GI50 [18] was 3.22 µM and the TGI [18] was 7.07 µM. The GI50 [19] was 3.55 µM, the TGI [19] was 6.9 µM and the GI50 [56] was 0.849 µM. The TGI [56] was 4.7 µM, the GI50 [20] was 4.25 µM and the TGI [20] was 7.88 µM. For the same compound, the GI50 [21] was 1.03 µM, the TGI [21] was 4.17 µM and the GI50 [57] was 4.25 µM. The TGI [57] was 7.77 µM, the GI50 [22] was 4.29 µM and the TGI [22] was 8.06 µM. For the same compound, the GI50 [23] was 3.23 µM, the TGI [23] was 6.49 µM and the GI50 [24] was 3.61 µM. The TGI [24] was 7.32 µM, the GI50 [25] was 3.73 µM and the TGI [25] was 7.42 µM. It also gave a GI50 [27] of 4.1 µM, a TGI [27] of 7.6 µM and a GI50 [28] of 1.38 µM. It also gave a TGI [28] of 4.98 µM, a GI50 [29] of 3.65 µM and a TGI [29] of 7.06 µM. The GI50 [31] was 3.95 µM, the TGI [31] was 7.61 µM and the GI50 [32] was 3.96 µM. The TGI [32] was 7.82 µM, the GI50 [33] was 3.87 µM and the TGI [33] was 7.39 µM. For the same compound, the GI50 [34] was 3.86 µM, the TGI [34] was 7.77 µM and the GI50 [35] was 3.53 µM. It also gave a TGI [35] of 7.04 µM, a GI50 [36] of 3.34 µM and a TGI [36] of 7.07 µM. The GI50 [37] was 3.69 µM, the TGI [37] was 7.46 µM and the GI50 [39] was 2.61 µM. It also gave a TGI [39] of 6.61 µM, a GI50 [40] of 5.1 µM and a TGI [40] of 13.1 µM. It also gave a GI50 [41] of 3.72 µM, a TGI [41] of 7.36 µM and a GI50 [42] of 3.49 µM. The TGI [42] was 6.78 µM, the GI50 [43] was 3.86 µM and the TGI [43] was 8.01 µM. The GI50 [44] was 4.65 µM, the TGI [44] was 8.68 µM and the GI50 [45] was 3.39 µM. It also gave a TGI [45] of 7 µM, a GI50 [46] of 3.96 µM and a TGI [46] of 7.64 µM. The GI50 [48] was 4.5 µM, the TGI [48] was 8.46 µM and the GI50 [49] was 2.93 µM. For the same compound, the TGI [49] was 7.13 µM, the GI50 [50] was 4.26 µM and the TGI [50] was 7.76 µM. For the same compound, the GI50 [51] was 4.25 µM, the TGI [51] was 7.77 µM and the GI50 [52] was 3.56 µM. For the same compound, the TGI [52] was 7.97 µM, the GI50 [53] was 4.22 µM and the TGI [53] was 8.12 µM. The GI50 [54] was 3.91 µM and the TGI [54] was 8.21 µM.
